Measurements published in patent US4713457A, “Ergoline derivatives and acid addition salts thereof” (priority 1985, dated 1987).
Counter-ions that a name gives are not always drawn.

How the values were obtained:
[1] = system: unanesthetized spontaneously hypertensive rats; assay: Anti-hypertensive activity, systolic blood pressure, tail cuff method; assay type: in vivo, rat; settings: 10 mg/kg oral
Method: (§1) The anti-hypertensive activity of the compounds was determined by the tail cuff method using unanesthetized spontaneously hypertensive rats weighing 300 to 350 g (21 to 25 week old). In this experiment, the systolic blood pressure was determined by the bloodless method using a hemodynamometer. The heart rate was determined simultaneously using a sphygmometer connected to the pulse output. After rats were placed under condition of 40° C. for 10 minutes, the blood pressure was determined by holding the rats in a holder. The test compounds were suspended in a 0.5 wt% aqueous gum arabic. Hydralazine hydrochloride used as a comparative agent was administered as an aqueous solution thereof. The volume of oral administration was 0.5 ml per 100 g of body weight.

[2] = system: unanesthetized spontaneously hypertensive rats; assay: Heart rate determined simultaneously with blood pressure (sphygmometer connected to the pulse output); assay type: in vivo, rat; settings: for Changes in Heart Rate: 10 mg/kg oral
Method: as §1

human = settings: in human, side-effect; cited from earlier work
[3] = system: ddY male mice, reserpine-induced immobility; assay: Activity on reserpine-induced immobility (open-field method); assay type: in vivo, mouse; settings: reserpine 2 mg/kg, total of 1-min counts at 15, 30, 45, 60 min, ***p < 0.001
Method: Reserpine was administered intraperitoneally to ddY male mice (4 week old) at a dose of 2 mg/kg, and, after 18 to 20 hours, the test compound was administered intraperitoneally to the mice. Thereafter, the ambulation (the number of times of the animal crossed the demarcation line) of the mice was counted for a period of 1 minute at 15, 30, 45 and 60 minutes after the administration of the test compound, respectively, according to the open-field method. The total number of ambulation determined at 4 times in each mouse and compared with that of the control.

[4] = J. Affect. Disord., Vol. 1, 173 (1979); cited from earlier work
[5] = system: Rats, pylorus portion ligated (gastric secretion); assay: Gastric secretion inhibitory activity in pylorus-ligated rats; assay type: in vivo, rat; settings: 10 mg/kg into the duodenum, 6 hours
Method: Rats weighing 200 to 250 g (8 rats per group) which have been fasting for 24 hours before testing were subjected to abdominal section under ether anesthesia, and the pylorus portion was ligated. Immediately after ligation, the test compound was administered into the duodenum as a suspension in a 5 wt% aqueous gum arabic at a volume of 2 ml/kg. The rats were sacrificed after 6 hours, and the stomach was extracted. The gastric juice was collected to determine the volume thereof, and the acidity of the gastic juice was titrated to a pH 7.0 with a 0.02N aqueous sodium hydroxide solution using a pH meter. The acid secretion amount per 6 hours (μEq/6 h) was calculated by (volume of gastric juice×acidity of gastric juice).

[6] = system: Donryu male rats, indomethacin ulcer; assay: Anti-ulcer activity, indomethacin-induced ulcer; assay type: in vivo, rat; settings: 10 mg/kg oral, indomethacin 25 mg/kg
Method: The test compound was administered orally to Donryu male rats weighing 240 to 300 g (7 rats per group) which have been fasting for 24 hours before testing, and, after 30 minutes, indomethacin was administered orally to the rats at a dose of 25 mg/kg. The rats were then maintained for 7 hours without feeding water and foods and then sacrificed. The stomach was extracted and fixed by infusing 7.5 ml of a 2% formalin solution into the stomach. The stomach was incised along the greater curvature thereof, and length (mm) of each ulcer generated in gastric glands was determined. The total length of the ulcer per rat was expressed in terms of an ulcer index.
In this experiment, the test compound was suspended in a 0.5% aqueous gum arabic and administered at a volume of 5 ml/kg. Indomethacin (manufacturedby Sigma Co., Ltd.) was administered as a 0.5 wt% aqueous suspension in sodium carboxymethyl cellulose at a volume of 5 ml/kg. As a control, a 0.5 wt% suspension of aqueous gum arabic was orally administered at a volume of 5 ml/kg.

[7] = system: ddY male mice, KCN-induced anoxia; assay: Activity on KCN-induced anoxia in mice; assay type: in vivo, mouse
[8] = system: Rats with unilateral 6-hydroxydopamine lesion of the substantia nigra; assay: Rotational activity in rats with unilateral 6-hydroxydopamine lesion of the substantia nigra; assay type: in vivo, rat
Method: Rats under pentobarbital sodium anesthesia (50 mg/kg, i.p.) were fixed on an apparatus for fixing brain, and 6-hydroxydopamine (8 μg/4 μl) was injected in the substantia nigra (A:3.0, L:2.6, D:7.8) according to Pellegrino & Cushman's atlas. Seven days after the injection of 6-hydroxydopamine, apomorphine was administered subcutaneously at a dose of 0.25 mg/kg, and the rats showing […] rotating movement to one side opposite to the destroyed side were selected. After 7 days, the test compound was administered intraperitoneally and, thereafter, rotating movement of the rats was observed over 1 minute at an interval of 5 minutes during a period of 60 minutes.

Row | Compound | Changes in Systolic Blood Pressure ([1]; 1 hr after administration) | Changes in Systolic Blood Pressure ([1]; 2 hrs after administration) | Changes in Systolic Blood Pressure ([1]; 4 hrs after administration) | Changes in Systolic Blood Pressure ([1]; 6 hrs after administration) | Changes in Systolic Blood Pressure ([1]; 24 hrs after administration) | Changes in Heart Rate ([2]; 1 hr after administration) | Changes in Heart Rate ([2]; 2 hrs after administration) | Changes in Heart Rate ([2]; 4 hrs after administration) | Changes in Heart Rate ([2]; 6 hrs after administration) | Changes in Heart Rate ([2]; 24 hrs after administration) | Ambulation ([3]; 10 mg/kg i.p., n = 6) | other results
1 | NNc1nncc2ccccc12 [Hydralazine Hydrochloride, reference compound] | -47 Δ mmHg | -52 Δ mmHg | -67 Δ mmHg | -41 Δ mmHg | -22 Δ mmHg | 65 Δ/min. | 66 Δ/min. | 75 Δ/min. | 64 Δ/min. | 44 Δ/min. |  | Heart rate effect (in words) ([2]; Table 2): a marked increase in heart rate; Tachycardia (human): exhibited tachycardia in human as one of side-effects
2 | CC(C)C[C@H]1C(=O)N2CCC[C@H]2[C@]2(O)O[C@](NC(=O)[C@@H]3C=C4c5cccc6[nH]c(Br)c(c56)C[C@H]4N(C)C3)(C(C)C)C(=O)N12 [Bromocriptine Methanesulfonate] |  |  |  |  |  |  |  |  |  |  | 36.7 ± 12.3 | Anti-depressive activity (known) [4]: has been known to have an anti-depressive activity
3 | CN1C[C@H](CN2CCOC2=O)C[C@@H]2c3cccc4[nH]cc(c34)C[C@H]21 [Example 2, 3-(6-Methylergolin-8β-ylmethyl)oxazolidin-2-one] | -64 Δ mmHg | -36 Δ mmHg | -37 Δ mmHg | -52 Δ mmHg | -11 Δ mmHg | -39 Δ/min. | -74 Δ/min. | -58 Δ/min. | -56 Δ/min. | -23 Δ/min. |  | Volume of Acid Secreted, Inhibition [5]: 70.8%; Volume of Gastric Juice, Inhibition [5]: 63.3%; Total Acidity ([5]; *p < 0.05): 61.4 ± 7.5 mEq/liter; Ulcer Index Inhibition [6]: 92.7%; Ulcer Index ([6]; ***p < 0.001): 4.4 ± 2.3 mm; Survival Time ([7]; 10 mg/kg i.p., KCN 2.5 mg/kg i.v., **p < 0.01, ***p < 0.001, survivors counted as 180 sec): 144.4 ± 17.6 s; Number of Survived Mice/Total Mice ([7]; 10 mg/kg i.p., KCN 2.5 mg/kg i.v., survived longer than 3 minutes): 5/8; Brain protection activity (in words) ([7]; Table 5): exhibited the activity higher that that of dihydroergotoxine methanesulfonate
4 | CN1CCc2cccc3c2[C@H]1Cc1ccc(O)c(O)c1-3 [Apomorphine Hydrochloride, reference compound] |  |  |  |  |  |  |  |  |  |  |  | Ambulation ([3]; 3 mg/kg i.p., n = 10): 71.0 ± 7.0; Number of Rotating Movement over 60 min. ([8]; 0.5 mg/kg i.p.): 147
5 | CN1C[C@H](Cn2cncn2)C[C@@H]2c3cccc4[nH]cc(c34)C[C@H]21 [Example 6, 1-(6-Methylergolin-8β-ylmethyl)-1,2,4-triazole] | -64 Δ mmHg | -67 Δ mmHg | -62 Δ mmHg | -65 Δ mmHg | -14 Δ mmHg | -8 Δ/min. | -30 Δ/min. | -33 Δ/min. | -21 Δ/min. | -10 Δ/min. | 198.8 ± 32.2 | Duration of increase in spontaneous movement and sniffing ([8]; 10 mg/kg i.p.): more than 5 hours; Number of Rotating Movement over 60 min. ([8]; 10 mg/kg i.p.): 0; Spontaneous movement and sniffing ([8]; 10 mg/kg i.p.): Increase in spontaneous movement and sniffing occurred markedly
